Converted amounts (≈) assume the structure as drawn. Read-outs that look alike come from different tables or passages of the source.
Key:
[1] = tested on: Escherichia coli K-12; assay: In vitro antibacterial activity, MIC by serial dilution; type: cell-based
Description: (§1) The minimum inhibitory concentration (MIC) was determined by the well
(§2) known serial dilution method.
(§3) Experimental conditions:?
(§4) Medium: nutrient broth, pH 7.0 (5 ml/tube)
(§5) Inoculum: 1 drop of 1 : 10^5 dilution of an overnight broth culture
(§6) Incubation temperature and time: 37°C for 48 hours

[2] = tested on: Pseudomonas aeruginosa Tsuchijima; assay: as above; type: cell-based; conditions: nutrient broth pH 7.0, 37°C, 48 hours
Description: as §1, §2, §3, §4, §5, §6

[3] = tested on: Staphylococcus aureus Terajima; assay: as above; type: cell-based; conditions: nutrient broth pH 7.0, 37°C, 48 hours
Description: as §1, §2, §3, §4, §5, §6

[4] = tested on: Pseudomonas aeruginosa No. 12; assay: In vivo efficacy against systemic infection with Pseudomonas aeruginosa in mice; parameters: species or system mice (ddY-S); conditions: for ED50: twice, about 5 minutes and 6 hours after infection
Description: (§7) In the Tables II to IV, the ED50 and ID50 values were calculated in accordance with the Behrens-Kaerber method [Arch. Exp. Path. Pharm., 162, 480 (1931)]. The compound numbers are those described in the Examples and compounds PA and AT-616 are as follows:
(§8) total number. 0/8 means that all of 8 mice died. 8/8 means that all 8 mic
(§9) Mice: male mice (ddY-S) weighing 20 g approximately

[5] = tested on: Salmonella typhimurium S-9; assay: In vivo efficacy against systemic infection with Salmonella typhimurium in mice; parameters: species or system mice (ddY-S); conditions: for ED50: Salmonella enterica, TYPHIMURIUM, 336 h, twice a day for 4 days, 14 days observation; for number of the survived/the total number: 14 days
Description: as §7
The numerical figures in the table show the number of the survived/the
as §8
Experimental conditions.
Organism: Salmonella typhimurium S-9
as §9
Infection: Intraperitoneal infection with 50 to 100 LD50 of a
bacterial suspension in nutrient broth (about 10^5 cells/mouse)
Medication: twice a day for 4 days from the day of infection.
Drug: an alkaline solution for parenteral administration and suspension i
0.2% CMC for oral administration
i.e.: intraperitoneal administration
p.o.: oral administration

[6] = tested on: Mycobacterium tuberculosis H37 Rv; assay: Antituberculous activity in vitro, MIC by serial dilution; type: cell-based; conditions: H37RV, 504 h, Kirchner medium with 0.2% bovine albumin, pH 7.0, 37°C, 3 weeks
Description: (§10) The minimum inhibitory concentration (MIC:μg/ml) was determined by the
(§11) well known serial dilution method.
as §3
(§12) Medium: Kirchner medium containing 0.2% bovine albumin, pH 7.0 (3 ml/tube
(§13) Inoculum: 1 drop of 1:10^2 dilution of a culture in Modified Kirchner
(§14) medium for 2 weeks (OD=0.3) per tube
(§15) Incubation temp. and time: 37°C for 3 weeks

[7] = tested on: Mycobacterium tuberculosis Kurono; assay: as above; type: cell-based; conditions: 504 h, Kirchner medium with 0.2% bovine albumin, pH 7.0, 37°C, 3 weeks
Description: as §10, §11, §3, §12, §13, §14, §15

[8] = K12, Escherichia coli K-12, nutrient broth pH 7.0, 37°C, 48 hours, read-out: MIC
[9] = NO.12, 168 h, ip, 100 mg/kg, 7 days, read-out: number of the survival/the total number (converted)
[10] = NO.12, 168 h, po, 7 days, read-out: number of the survival/the total number (converted)
[11] = NO.12, 168 h, ip, 7 days, read-out: number of the survival/the total number (converted)
[12] = Escherichia coli, K12, 48 h, pH 7
[13] = NO.12, 168 h, ip, 50 mg/kg, 7 days, read-out: number of the survival/the total number (converted)

SMILES	MIC [1, 8]	MIC [2]	MIC [3]	ED50 ([4]; NO.12, 168 h, ip, 7 days)	responders at 200 mg/kg [4, 10]	ED50 ([4]; NO.12, 168 h, po, 7 days)	ED50 ([5]; ip)	ED50 ([5]; po)	number of the survived/the total number ([5]; po, 25 mg/kg)	number of the survived/the total number ([5]; po, 50 mg/kg)	further results
CCn1cc(C(=O)O)c(=O)c2cnc(N3CCC(O)C3)nc21 (stereo not drawn) [Compound AT-616, reference compound]	1 µg/mL (≈ 3.29 µM)	100 µg/mL (≈ 329 µM)	30 µg/mL (≈ 98.6 µM)	> 100 mg/kg	12.5%	> 200 mg/kg	–	–	–	–	responders at 100 mg/kg [4, 9]: 37.5%
O=C(O)c1cn(Cc2ccccc2)c2nc(N3CCNCC3)ncc2c1=O [Compound 33, 8-Benzyl-5,8-dihydro-2-(1-piperazinyl)-5-oxopyrido [2,3-d]pyrimidine-6-carboxylic acid]	3 µg/mL (≈ 8.21 µM)	10 µg/mL (≈ 27.4 µM)	100 µg/mL (≈ 274 µM)	< 17.7 mg/kg	–	–	12.5 mg/kg	–	–	–	responders at 25 mg/kg [4, 11]: 100%; number of the survived/the total number ([5]; ip, 6.3 mg/kg): 1/8; number of the survived/the total number ([5]; ip, 12.5 mg/kg): 4/8; number of the survived/the total number ([5]; ip, 25 mg/kg): 7/8
CCn1cc(C(=O)O)c(=O)c2cnc(N3CCN(Cc4ccc(OC)cc4)CC3)nc21 [Compound 17]	3 µg/mL (≈ 7.08 µM)	100 µg/mL (≈ 236 µM)	10 µg/mL (≈ 23.6 µM)	–	–	–	–	–	–	–	–
CCCn1cc(C(=O)O)c(=O)c2cnc(N3CCNCC3)nc21 [Compound 2, 5,8-Dihydro-2-(1-piperazinyl)-8-n-propyl-5-oxopyrido[2,3-d]pyrimidine-6-carboxylic acid]	–	30 µg/mL (≈ 94.5 µM)	100 µg/mL (≈ 315 µM)	35.4 mg/kg	62.5%	< 200 mg/kg	–	–	–	–	MIC [1, 12]: 3 µg/mL (≈ 9.45 µM); responders at 50 mg/kg [4, 13]: 100%
CCn1cc(C(=O)O)c(=O)c2cnc(N3CCCC3)nc21 [Compound PA, reference compound]	1 µg/mL (≈ 3.47 µM)	100 µg/mL (≈ 347 µM)	10 µg/mL (≈ 34.7 µM)	> 100 mg/kg	0%	> 200 mg/kg	43.5 mg/kg	46.7 mg/kg	3/10	4/10	responders at 100 mg/kg [4, 9]: 0%; number of the survived/the total number ([5]; ip, 12.5 mg/kg): 0/10; number of the survived/the total number ([5]; ip, 25 mg/kg): 3/10; number of the survived/the total number ([5]; ip, 50 mg/kg): 5/10; number of the survived/the total number ([5]; ip, 100 mg/kg): 9/10; number of the survived/the total number ([5]; po, 12.5 mg/kg): 0/10; number of the survived/the total number ([5]; po, 100 mg/kg): 10/10; MIC [6]: 100 µg/mL (≈ 347 µM); MIC [7]: 100 µg/mL (≈ 347 µM)
C=Cn1cc(C(=O)O)c(=O)c2cnc(N3CCNCC3)nc21.Cl [Compound 54, 5,8-Dihydro-2-(1-piperazinyl)-8-vinyl-5-oxopyrido[2,3-d] pyrimidine-6-carboxylic acid hydrochloride]	3 µg/mL	3 µg/mL	> 100 µg/mL	–	–	–	–	17.7 mg/kg	6/8	8/8	number of the survived/the total number ([5]; po, 12.5 mg/kg): 2/8
C#CCN1CCN(c2ncc3c(=O)c(C(=O)O)cn(CC)c3n2)CC1 [Compound 38]	3 µg/mL (≈ 8.79 µM)	> 100 µg/mL	10 µg/mL (≈ 29.3 µM)	–	–	–	–	21 mg/kg	6/8	8/8	number of the survived/the total number ([5]; po, 12.5 mg/kg): 0/8
CCn1cc(C(=O)O)c(=O)c2cnc(N3CCN(CC(C)O)CC3)nc21 (stereo not drawn) [Compound 4, 5,8-Dihydro-8-ethyl-2-[4-(2-hydroxy-n-propyl)-1-piperazinyl]-5-oxopyrido[2,3-d]pyrimidine-6-carboxylic acid]	3 µg/mL (≈ 8.3 µM)	100 µg/mL (≈ 277 µM)	30 µg/mL (≈ 83 µM)	–	–	–	< 35.4 mg/kg	< 35.4 mg/kg	–	8/8	number of the survived/the total number ([5]; ip, 50 mg/kg): 8/8
C=CCn1cc(C(=O)O)c(=O)c2cnc(N3CCNCC3)nc21 [Compound 50]	10 µg/mL (≈ 31.7 µM)	30 µg/mL (≈ 95.1 µM)	100 µg/mL (≈ 317 µM)	35 mg/kg	–	–	–	–	–	–	responders at 25 mg/kg [4, 11]: 12.5%; responders at 50 mg/kg [4, 13]: 87.5%; responders at 100 mg/kg [4, 9]: 100%
CCn1cc(C(=O)O)c(=O)c2cnc(N3CCN(c4ccccc4)CC3)nc21 [Compound 6, 5,8-Dihydro-8-ethyl-2-(4-phenyl-1-piperazinyl)-5-oxoprido[2,3-d]pyrimidine-6-carboxylic acid]	–	–	–	–	–	–	–	–	–	–	MIC [6]: 6.3 µg/mL (≈ 16.6 µM); MIC [7]: 6.3 µg/mL (≈ 16.6 µM)
CCn1cc(C(=O)O)c(=O)c2cnc(N3CCNCC3)nc21.Cl [Compound 11, 5,8-Dihydro-8-ethyl-2-(1-piperazinyl)-5-oxopyrido[2,3-d]pyrimidine-6-carboxylic acid hydrochloride]	3 µg/mL	10 µg/mL	30 µg/mL	< 17.7 mg/kg	100%	< 100 mg/kg	–	< 35.4 mg/kg	–	8/8	responders at 25 mg/kg [4, 11]: 100%; responders at 100 mg/kg ([4]; NO.12, 168 h, po, 100 mg/kg, 7 days, read-out: number of the survival/the total number (converted)): 87.5%
CCN1CCN(c2ncc3c(=O)c(C(=O)O)cn(CC)c3n2)CC1 [Compound 21, 2-(4-ethyl-1-piperazinyl)-5,8-dihydro-8-ethyl-5-oxopyrido[2,3-d]pyrimidine-6-carboxylic acid]	1 µg/mL (≈ 3.02 µM)	100 µg/mL (≈ 302 µM)	30 µg/mL (≈ 90.5 µM)	~100 mg/kg	50%	~200 mg/kg	< 17.7 mg/kg	< 17.7 mg/kg	8/8	–	responders at 50 mg/kg [4, 13]: 0%; responders at 100 mg/kg [4, 9]: 50%; number of the survived/the total number ([5]; ip, 25 mg/kg): 8/8
Cl.O=C(O)c1cn(CCCl)c2nc(N3CCNCC3)ncc2c1=O [Compound 63, 8-(2-chloroethyl)-5,8-dihydro-2-(1-piperazinyl)-5-oxopyrido[2,3-d]pyrimidine-6-carboxylic acid hydrochloride]	3 µg/mL	30 µg/mL	30 µg/mL	< 17.7 mg/kg	–	–	–	–	–	–	responders at 25 mg/kg [4, 11]: 100%; responders at 50 mg/kg [4, 13]: 100%
CCn1cc(C(=O)O)c(=O)c2cnc(N3CCNCC3)nc21 [Compound 1, 5,8-Dihydro-8-ethyl-2-(1-piperazinyl)-5-oxopyrido[2,3-d]pyrimidine-6-carboxylic acid]	–	10 µg/mL (≈ 33 µM)	30 µg/mL (≈ 98.9 µM)	10.5 mg/kg	–	100 mg/kg	6.3 mg/kg	12.5 mg/kg	8/8	8/8	MIC [1, 12]: 1 µg/mL (≈ 3.3 µM); responders at 3.1 mg/kg ([4]; NO.12, ip, 168 h, read-out: number of the survival/the total number, ip, 3.1 mg/kg, 7 days): 12.5%; responders at 6.3 mg/kg ([4]; NO.12, ip, 168 h, read-out: number of the survival/the total number, ip, 6.3 mg/kg, 7 days): 25%; responders at 12.5 mg/kg ([4]; NO.12, ip, 168 h, read-out: number of the survival/the total number, ip, 12.5 mg/kg, 7 days): 50%; responders at 50 mg/kg ([4]; NO.12, ip, 168 h, read-out: number of the survival/the total number, ip, 50 mg/kg, 7 days): 100%; responders at 50 mg/kg ([4]; NO.12, po, 168 h, read-out: number of the survival/the total number, po, 50 mg/kg, 7 days): 0%; responders at 100 mg/kg ([4]; NO.12, po, 168 h, read-out: number of the survival/the total number, po, 100 mg/kg, 7 days): 50%; number of the survived/the total number ([5]; ip, 6.3 mg/kg): 4/8; number of the survived/the total number ([5]; ip, 12.5 mg/kg): 8/8; number of the survived/the total number ([5]; ip, 25 mg/kg): 8/8; number of the survived/the total number ([5]; po, 6.3 mg/kg): 0/8; number of the survived/the total number ([5]; po, 12.5 mg/kg): 4/8

Source: US3962443A, “Antibacterial pharmaceutical compositions and processes for preparation thereof” (Dainippon Pharmaceutical Co., Ltd., priority 1972, dated 1976)
